Laboratory results reported in patent US7053178B2, “Synthetic peptides and kits for diagnosis of anti-phospholipid syndrome” (Yeda Research Development Co., LTD, priority 1998, dated 2006).
Where no end group is shown, it is not given here.

Experiments:
anti-β2GPI mAb ILA-3 = test: ELISA binding of ILA-3 mAb to phage-displayed hexapeptides; set-up: species or system human; scale not given here; conditions: ILA-3 mAb 5 μg/ml, 10^9 phage particles/well, O.D. at 405 nm
Procedure: (§1) (a) Epitope Library. The hexapeptide epitope library was kindly provided by George P. Smith (University of Missouri, Columbia, MO) and was constructed by use of the phage fd-derived vector fUSE5 as described (Scott and Smith, 1990). This library consists of 2×10^8 original phage clones each containing a hexapeptide fused to the minor coat protein PIII (Scott and Smith, 1990). (b) Anti-β2GPI mAbs. The human anti-β2GPI mAbs named ILA-1, ILA-3 and G-3 (IgM), were prepared by human-human hybridoma technique from PBL of an APS patient as described (George et al., 1998). Briefly, peripheral blood cells (PBL) were separated from whole blood by Ficoll-Hypaque gradient, the PBL were exposed to pokeweed mitogen for 5 days in order to enrich the B cell population and the lymphocytes were fused with the human lymphoblastoid cell line GM4672 in the presence of polyethyleneglycol (PEG 1500). After fusion, the cells were seeded into 96-well tissue culture plates with RPMI 1640, 10% FCS and hypoxanthine-aminopterin-thymidine (HAT) selection media. New clones were detected after 4–5 weeks, grown and screened for binding to β2GPI by ELISA. All clones were subjected 4 times to limiting dilution cloning procedures in regular medium. […] The hexapeptide epitope library of section (a) above was used as described (Scott and Smith, 1990). […]

anti-β2GPI mAb ILA-1 = test: ELISA binding of ILA-1 mAb to phage-displayed hexapeptides; set-up: species or system human; conditions: ILA-1 mAb 5 μg/ml, 10^9 phage particles/well, O.D. at 405 nm
Procedure: as §1

anti-β2GPI mAb G-3 = test: ELISA binding of G-3 mAb to phage-displayed hexapeptides; set-up: species or system human; scale not given here; conditions: G-3 mAb 5 μg/ml, 10^9 phage particles/well, O.D. at 405 nm
Procedure: (a) Epitope Library. The hexapeptide epitope library was kindly provided by George P. Smith (University of Missouri, Columbia, MO) and was constructed by use of the phage fd-derived vector fUSE5 as described (Scott and Smith, 1990). This library consists of 2×10^8 original phage clones each containing a hexapeptide fused to the minor coat protein PIII (Scott and Smith, 1990). (b) Anti-β2GPI mAbs. The human anti-β2GPI mAbs named ILA-1, ILA-3 and G-3 (IgM), were prepared by human-human hybridoma technique from PBL of an APS patient as described (George et al., 1998). Briefly, peripheral blood cells (PBL) were separated from whole blood by Ficoll-Hypaque gradient, the PBL were exposed to pokeweed mitogen for 5 days in order to enrich the B cell population and the lymphocytes were fused with the human lymphoblastoid cell line GM4672 in the presence of polyethyleneglycol (PEG 1500). After fusion, the cells were seeded into 96-well tissue culture plates with RPMI 1640, 10% FCS and hypoxanthine-aminopterin-thymidine (HAT) selection media. New clones were detected after 4–5 weeks, grown and screened for binding to β2GPI by ELISA. All clones were subjected 4 times to limiting dilution cloning procedures in regular medium. […] The hexapeptide epitope library of section (a) above was used as described (Scott and Smith, 1990). Briefly, a library sample containing 3.8×10^9 infectious phage particles was subjected to three rounds of selection (panning) and amplification. For each selection cycle a biotinylated mAb prepared as described in section (b) above (10 μg in the first panning and 1 μg for the others) was added in a total volume of 50 μl. The phages were preincubated with the biotinylated mAb overnight at 4° C., and the reaction mixtures were then layered in 1 ml PBS on streptavidin-coated 30-mm polystyrene petri dishes (Nunc, Kamstrup, Roskilde, Denmark) for 30 min at room temperature. Unbound phages were removed by extensive washings in PBS, and the remaining phages were eluted with 0.1M glycine-HCl, pH 2.2, and neutralized with Tris 1M. […]

Q: How did the “Binding O.D.” value (anti-β2GPI mAb ILA-3) turn out when KDKATF [K D K A T F] was run?
A: 1178 ± 101 O.D.

Q: With KTPRVT [K T P R V T] as the substance, how does the “Binding O.D.” value (anti-β2GPI mAb ILA-1) read?
A: 1201 ± 142 O.D.

Q: Which “Binding O.D.” value (anti-β2GPI mAb ILA-1) does the source give for LKTPRV [L K T P R V] here?
A: 975 ± 72 O.D.

Q: Which “Binding O.D.” value (anti-β2GPI mAb G-3) does the source give for TKLRVY [T K L R V Y] here?
A: 954 ± 62 O.D.

Q: How did the “Binding O.D.” value (anti-β2GPI mAb G-3) turn out when TLLRVY [T L L R V Y] was run?
A: 869 ± 71 O.D.

Q: How did the “Binding O.D.” value (anti-β2GPI mAb G-3) turn out when TLRVYK [T L R V Y K] was run?
A: 791 ± 33 O.D.
